Reference: EP4606382A1, “INHIBITORS OF TANGO1 ACTIVITY AND METHODS OF USE THEREOF” (Fundació Centre de Regulació Genòmica, priority 2024, dated 2025)
Ends that are not written are not given here.

Test system: normal human skin fibroblasts
Assay: LDH release cytotoxicity assay
Assay type: cell-based
Settings: primary human skin fibroblasts
Method: To test if the peptides efficiently reduce collagen secretion also in primary cells derived from human individuals, normal human skin fibroblasts, the key producers of collagen in connective tissues, were treated with the peptides P2 and P5.
Cytotoxic effects induced by peptide treatment were determined by lactate dehydrogenase (LDH) levels in fibroblast supernatants using Cytotoxicity Assay (Promega G1780) according to the manufacturer's instructions.

Row | Substance | cytotoxic effects (LDH release)
1 | LEKEEKLSKVDEKISHATEELETYRKRAKDLGLRKRLRKFRNK-NH2 [Peptide P5] | neither P2 nor P5 nor P2+P5 exerted cytotoxic effects
2 | LRQKVEILNELYQQKEMALQKKLSQEEYERGLRKRLRKFRNK-NH2 [Peptide P2] | neither P2 nor P5 nor P2+P5 exerted cytotoxic effects
